Reference: patent US20070027130A1, “Tricyclic 6-alkylidene-penem beta-lactamase inhibitors and beta-lactam antibiotic combination: a broad spectrum antibiotic” (priority 2005, published 2007)
Converted amounts (≈) assume the structure as drawn.

Experiments:
[1] = test system: E. coli GC 6265 TEM-1 (LSU-80-8); assay: In vivo antibacterial protection, infected mice; details: 168 h, read-out: ED50 mg/kg/SIV
Protocol: Female mice strain CD-1, approximately 18-22 grams, were received from Charles River Laboratories and quarantined 7 days prior to use.
Clinical isolates that were adapted to cause infection in mice were used in the experiment, including infections with strains of E. coli and E. cloacae.
Mice were challenged by injecting 0.5 ml intraperitoneally of a predetermined bacterial inoculum suspended in 5% hog gastric mucin. The bacterial inoculum was equivalent to 10-100 LD50s of the specific infecting strain and was designed to result in death of the non-treated control animals within 7 days. Antibacterial doses (dose concentration prepared by two fold serial dilutions of the antibiotic or antibiotic/compound combination) were dissolved or suspended in 0.2% aqueous agar (subcutaneous administration) or phosphate buffered saline (intravenous administration) and administered intravenously or subcutaneously in the following manner:
a) Subcutaneously: Dose volume of 0.5 ml was administered ½ hr after infection. […]
A detailed explanation of the protocol for the determination of in vivo efficacy follows: • A) The effectiveness of the lacamase inhibitor compound/cefepime combination was evaluated against a cefepime control. […]
The protective effects of the antibacterial agent(s) were measured by the survival of the infected untreated as compared to the treated animals. […]

[2] = test system: P. aeruginosa GC 3153 Inducible AmpC; assay: MIC microbroth dilution; type: cell-based; details: Pseudomonas aeruginosa, β-lactamase class C, MHBII, 35° C. 18 hr, read-out: Minimal Inhibitory Concentration
Protocol: (§1) The in vitro activities of the antibiotics were determined by the microbroth dilution method as recommended by the National Committee for Clinical Laboratory Standards (NCCLS). (NCCLS. 2000. Methods for Dilution Antimicrobial Susceptibility Tests for Bacteria That Grow Aerobically; Approved Standards: M7-A5, vol. 19. National Committee for Clinical Laboratory Standards, Villanova, Pa.). Mueller-Hinton II broth (MHBII) (BBL Cockeysville, Md.), was used for the testing procedure. […]. The plates were incubated for 18-22 hours at 35 C. in ambient air.

[3] = test system: K. pneumoniae GC 7635 SHV-1, KPC2; assay: MIC microbroth dilution; type: cell-based; details: Klebsiella pneumoniae, β-lactamase class A, A (Cb'ase), MHBII, 35° C. 18 hr, read-out: Minimal Inhibitory Concentration
Protocol: as §1

[4] = test system: E. coli GC 2015 (TEM-10 + SHV-1); assay: MIC microbroth dilution; type: cell-based; details: Escherichia coli, β-lactamase class A, A (ESBL), MHBII, 35° C. 18 hr, read-out: Minimal Inhibitory Concentration
Protocol: as §1

E. coli GC 2805 (CcrA) = assay: MIC microbroth dilution; type: cell-based; details: Escherichia coli, 18 h, read-out: Minimal Inhibitory Concentration
Protocol: as §1

[5] = test system: K. pneumoniae GC 2826 Act 1 + 3 additional; assay: MIC microbroth dilution; type: cell-based; details: Klebsiella pneumoniae, β-lactamase class A, A (ESBL), C, MHBII, 35° C. 18 hr, read-out: Minimal Inhibitory Concentration
Protocol: as §1

[6] = test system: E. coli GAR 6649 TEM, OXA, CTX (By PCR only); assay: MIC microbroth dilution; type: cell-based; details: Escherichia coli, β-lactamase class A, A (ESBL), D, MHBII, 35° C. 18 hr, read-out: Minimal Inhibitory Concentration
Protocol: as §1

[7] = test system: E. coli GC 1499 (TEM-4 + TEM-1); assay: MIC microbroth dilution; type: cell-based; details: Escherichia coli, β-lactamase class A, A (ESBL), MHBII, 35° C. 18 hr, read-out: Minimal Inhibitory Concentration
Protocol: as §1

[8] = test system: E. coli LSU 80-8 GC 6265 TEM-1; assay: MIC microbroth dilution; type: cell-based; details: Escherichia coli, read-out: MIC* (minimum inhibitory concentration)
Protocol: as §1

[9] = test system: K. pn GC 1507 (TEM-9 + SHV-1); assay: MIC microbroth dilution; type: cell-based; details: Klebsiella pneumoniae, β-lactamase class A, A (ESBL), MHBII, 35° C. 18 hr, read-out: Minimal Inhibitory Concentration
Protocol: as §1

[10] = test system: P. aeruginosa GC 1764 (AmpC); assay: MIC microbroth dilution; type: cell-based; details: Pseudomonas aeruginosa, β-lactamase class C, MHBII, 35° C. 18 hr, read-out: Minimal Inhibitory Concentration
Protocol: as §1

[11] = test system: K. pn GC 2006 (TEM-10 + SHV-1); assay: MIC microbroth dilution; type: cell-based; details: Klebsiella pneumoniae, β-lactamase class A, A (ESBL), MHBII, 35° C. 18 hr, read-out: Minimal Inhibitory Concentration
Protocol: as §1

[12] = test system: P. aeruginosa PT 9025 PTZ-R; assay: MIC microbroth dilution; type: cell-based; details: Pseudomonas aeruginosa, PT9025PTZR, 18 h, read-out: Minimal Inhibitory Concentration
Protocol: as §1

E. coli GC 2300 (TEM-28) = assay: MIC microbroth dilution; type: cell-based; details: Escherichia coli, β-lactamase class A (ESBL), MHBII, 35° C. 18 hr, read-out: Minimal Inhibitory Concentration
Protocol: as §1

[13] = test system: E. cloacae PT 1494 Inducible AmpC; assay: MIC microbroth dilution; type: cell-based; details: Enterobacter cloacae, β-lactamase class C, MHBII, 35° C. 18 hr, read-out: Minimal Inhibitory Concentration
Protocol: as §1

[14] = test system: E. aerogenes GC 7039 TEM-4, Amp C inducable; assay: MIC microbroth dilution; type: cell-based; details: Klebsiella aerogenes, β-lactamase class A (ESBL), MHBII, 35° C. 18 hr, read-out: Minimal Inhibitory Concentration
Protocol: as §1

CO/N=C(\C(=O)N[C@@H]1C(=O)N2C(C(=O)[O-])=C(C[N+]3(C)CCCC3)CS[C@H]12)c1csc(N)n1 [Cefepime]
ED50 [1]: 0.039 mg/kg | MIC [2]: 16 µg/mL (≈ 33.3 µM) | MIC [3]: > 16 µg/mL | MIC [4]: > 16 µg/mL | MIC (E. coli GC 2805 (CcrA)): > 16 µg/mL | MIC [5]: 8 µg/mL (≈ 16.6 µM) | MIC [6]: > 16 µg/mL | MIC [7]: > 16 µg/mL | MIC [8]: 0.06 µg/mL (≈ 0.125 µM) | MIC [9]: 8 µg/mL (≈ 16.6 µM) | MIC [10]: 8 µg/mL (≈ 16.6 µM) | MIC [11]: > 16 µg/mL | MIC [12]: > 16 µg/mL | MIC (E. coli GC 2300 (TEM-28)): > 16 µg/mL | MIC [13]: 0.25 µg/mL (≈ 0.52 µM) | MIC [14]: > 16 µg/mL
